This note sets out measurements from patent publication US5215889A, “Catalytic and reactive polypeptides and methods for their preparation and use” (The Regents of the University of California, priority 1989, dated 1993).

A value given as a limit tells only on which side of the number the result lay.

The test system of data set [1] is monoclonal antibody (IgG) generated against hapten 2 (benzylamine 2). As to the kind of experiment: Antibody-catalyzed elimination of HF from β-fluoroketone. It counts as biochemical, Balb/c mice. As for the experimental part: Solutions of substrate 1 were incubated with 2 μM Ig at 37° C. in 10 mM Bis-tris-HCl, 100 mM NaCl pH 6.0, at substrate concentration between 50 and 500 μM. Protein molarity was determined by absorbance at 280 nm using ε^0.1% =1.37 and a molecular weight of 150 kD for IgG. Elimination was followed spectrophotometrically. […] One of these antibodies was characterized further. […] The kinetics of the reaction are consistent with the simple Michaelis-Menten rate expression: [drawing 3] These values afford a kcat /kuncat of 1480 at pH 6.0.
Values of Ki were determined at 10 mM Bis-tris-HCl, 100 mM NaCl, pH 6.0 (37° C.). Substrate concentrations were 200 and 500 μM, Ig concentration was 2 μM, hapten concentration was […] to 1 μM.
The pH dependence of kcat was also determined under the same reaction conditions. Values of kcat are as follows: kcat =0.083 min^-1 at pH 5.5, kcat =0.11 at pH 5.75, kcat =0.188 at pH 6.0, kcat =0.3 at pH 6.5 and kcat =0.43 at pH 7.5. A plot of kcat vs. kcat [H^+ ] gives a pKa of 6.1 for the active site base. It is very likely that this corresponds to a high pKa carboxylate based on the strategy for generating the antibody. Chemical modification experiments with diazoacetamide support this hypothesis.

Data set [2] has as its target T1, MOPC315 Fab, thiolated (labeled with bromoketone 4; tyrosine 34L derivatized) (Mus musculus, UniProt P01729+P01822+P01844).
T1 construct: made in house; host or cells: Fab by papain digestion of reduced and alkylated MOPC315 IgA (murine myeloma)
As to the kind of experiment: Fluorescence quenching binding of substrate by thiolated Fab. Further details: species or system murine. The source says: The reaction kinetics are consistent with the formation of a Michaelis complex (FIG. 6). […] Neither the uncleaved affinity-labeled antibody nor the iodoacetamide-alkylated antibody accelerated the rate of the thiolysis reaction above the background rate. The stoichiometry of product release corresponded to 1.0 coumarin to 1.0 Fab-SH. […] However, the introduction of both a thiol and a general base into the label may lead to a catalytic system (Bruice (1959) J. Am. Chem. Soc. 81:5444 and Street et al. (1985) J. Am. Chem. Soc. 107:7669).

The target in data set [3] is T2, MOPC315 Fab, thiolated (affinity-labeled with 2 and cleaved; free thiol at lysine 52H) (Mus musculus, UniProt P01729+P01822+P01878).
T2 construct: made in house; host or cells: Fab by papain digestion of reduced and alkylated MOPC315 IgA (murine myeloma)
As to the kind of experiment: Thiolysis of DNP coumarin ester by thiolated Fab. It is filed as biochemical, murine. As for the experimental part: Cleavage of DNP coumarin esters 14 and 15 by the thiol-containing antibodies was assayed in the presence of 0.1M NaCl, 50 mM sodium phosphate, pH 7.0, with 24 μM dithiothreitol at 10° C. The release of free coumarin was quantitated fluorometrically, exciting at 355 nm and measuring emission at 455 nm. The S-thiopyridyl Fab was first dialyzed against assay buffer, 30 min. prior to the assays, an aliquot of the thiopyridyl Fab (0.15 mg in 0.19 ml) was reduced with 3.8 mM dithiothreitol at 20° C. For each assay, reduced, thiolated Fab (15 μg in 18.8 μl) was diluted with assay buffer (2.95 ml) so that the net concentrations of thiolated Fab and of dithiothreitol were 0.1 μM and 24 μM, respectively. After equilibrating, the substrate was added (30 μl of a stock solution in acetonitrile) and the solution mixed for 10 sec. before monitoring fluorescence change. Antibody rates were corrected by subtracting the rate of cleavage in the absence of Fab.
The reaction kinetics are consistent with the formation of a Michaelis complex (FIG. 6). […] Neither the uncleaved affinity-labeled antibody nor the iodoacetamide-alkylated antibody accelerated the rate of the thiolysis reaction above the background rate. The stoichiometry of product release corresponded to 1.0 coumarin to 1.0 Fab-SH. […]

In data set [4] the target is underivatized MOPC 315. The data set can be described thus: Fluorescence quenching binding in PBS. Further details: species or system murine. On the procedure: The hydrolysis of coumarin esters 1a-1d (FIG. 9) by the semisynthetic antibody was assayed in the presence and absence of 1 μM derivatized Fab at varying pH, at 30° C. (Morpholineethanesulfonic acid (100 mM) as used as the buffer in the range of pH 5 to 7. Sodium phosphate (100 mM) was used in the range of pH 6 to 8 and tris-HCl (100 mM) was used in the range of pH 7 to 9.) The release of free coumarin was quantitated fluorometrically, exciting at 355 nm and measuring emission at 455 nm. Antibody rates were corrected by subtracting the rate of cleavage in the absence of antibody. […] This value is almost identical to the KD (5 μM) for the binding of N-DNP-glycine to underivatized MOPC 315, (determined by fluorescence quenching in PBS). […] At pH>8, the unmodified Fab slightly accelerates the cleavage of ester 1b in a stoichiometric reaction, presumably involving modification of an amino acid side chain near the binding site. However, this reaction is not observed in the catalysis by the imidazole-derivatized antibody, where the reactive antibody side-chain is probably inaccessible. The catalytic activity of the semisynthetic antibody is destroyed by treatment with diethylpyrocarbonate, an imidazole-specific reagent. […]

For data set [5], the target named is T3, MOPC315 Fv variant Fv(Y34HL), Tyr 34L to His (Mus musculus, UniProt P01729+P01822, Y53H).
T3 construct: Antibody-derived VH was prepared by denaturing ion exchange chromatography of authentic MOPC315 Fv, obtained from pepsin digestion of purified IgA; lambda cII fusion with Factor Xa site (IleGluGlyArg) (N, cleaved yes); made in house; host or cells: VL: E. coli MZ1 (cII fusion, inclusion bodies); VH: pepsin-cleaved MOPC315 IgA from mouse ascites
As to the kind of experiment: Hydrolysis of DNP coumarin esters 1-3 by Fv. The conditions noted are these: pH 6.8; SE (n = 3). It is filed as biochemical, murine. As for the experimental part:
(§1) FIG. 22 is a Lineweaver-Burke plot of initial rate data obtained for the hydrolysis of 1 as described in Example 6 of the Experimental section herein. Four μl of a 100-fold concentrated solution of substrate 1 in DMSO was added to the 400 μl of Fv (115 nM) in buffer A while monitoring 7-hydroxycoumarin fluorescence at 25° C. (excitation:355nm; emission: 457 nm). A standard of 7-hydroxycoumarin was added at the completion of each assay to assess quenching of coumarin fluorescence by DNP at high substrate concentrations. The buffer background rate was subtracted from the initial rates. Each point represents the average velocity of at least duplicate experiments. Factor X, Factor Xa, or Russell's viper venom had no hydrolytic activity towards 1.
(§2) The ability of wild type and mutant Fvs to hydrolyze esters 1-3 was assayed by measuring the rate of coumarin release fluorimetrically at pH 6.8 (Pollack et al. (1988) supra; Pollack (1989) supra). […] Under these conditions, Fv(Y34HL) turns over at least 11 times and still retains 44% of its activity. The loss of activity is likely due to the accumulation of the inhibitory reaction product 8. […] Ester 2 was a poor substrate (kcat (2)=0.015 min^-1); and the hydrolysis of 3 was not accelerated (kcat (3)<0.005 min^-1). […] The initial rate of hydrolysis of 1 by Fv(Y34HL) at pH 6.8 is approximately 45-fold faster than the reaction with either […] (Table 2). At pH 8.7, the reactivity of Fv(Y34HL) and Fv(315) both increase, but differentially (v[Fv(Y34HL ]/v[Fv(315)]=3.3, at 10 μM 1). Under these conditions Fv(Y34HL) catalytically hydrolyzes 1 while Fv(315) reacts stoichiometrically. The increased reactivity of Fv(315) at higher pH may be due to deprotonation of the tyrosine hydroxyl and subsequent transesterification to form a relatively stable phenol ester.

Data set [6] deals with T4, MOPC315 Fv, wild type, Fv(315) (Mus musculus, UniProt P01729+P01822).
T4 construct: The Fv fragment (26 kD) is a heterodimer consisting of two peptides, VH (14 kD) and VL (12 kD); made in house; host or cells: MOPC315 myeloma ascites (Balb/c mice), IgA cleaved with pepsin
The data set can be described thus: Hydrolysis of DNP coumarin esters 1-3 by Fv. As to conditions: pH 6.8. It is filed as biochemical, murine. As for the experimental part: as §1, §2

Data set [7] has as its system antibody 15F1-3B1 (IgG, thymine dimer specific). The data set can be described thus: Antibody-sensitized photocleavage of thymine dimer. It counts as biochemical, Balb/c mice. As for the experimental part: Solutions of carboxymethylthymine dimer 1 were irradiated with 300 nm light in the presence of antibody; and dimer cleavage was assayed spectrophotometrically as follows. Deoxygenated solutions of thymine dimer (5-300 μM) and antibody (3 μM) in 100 mM NaCl, 10 mM phosphate buffer, pH 7.5 were irradiated at 18°-20° C. in a 1 mL quartz cuvette. All photolysis experiments were performed with a 1000 W high pressure Hg-Xe lamp equipped with a Photon Technologies International, Inc. Model Q5001 Quantacount electronic actinometer and a diffraction grating monochromator blazed at 500 nm. A bandpass of 3 nm was used for both kinetic and photon counting experiments. […] Monomer formation was assayed spectrophotometrically at fixed time intervals (λmax =272 nm, log ε=3.90).

Substrate in data set [8]: O=C(CCCCNc1ccc([N+](=O)[O-])cc1[N+](=O)[O-])Oc1ccc2ccc(=O)oc2c1
As to the kind of experiment: Hydrolysis of DNP coumarin esters 1-3 by Fv. As to conditions: other: pH 6.8, 25° C. It is filed as biochemical, murine. On the procedure: as §1, §2

Substrate in data set [9]: O=C(CCNc1ccc([N+](=O)[O-])cc1[N+](=O)[O-])Oc1ccc2ccc(=O)oc2c1
The data set can be described thus: Hydrolysis of DNP coumarin esters 1-3 by Fv. It counts as biochemical, murine. As to conditions: other: pH 6.8, 25° C. As for the experimental part:
as §1, §2

T2 sequence (P01822+P01878 fused): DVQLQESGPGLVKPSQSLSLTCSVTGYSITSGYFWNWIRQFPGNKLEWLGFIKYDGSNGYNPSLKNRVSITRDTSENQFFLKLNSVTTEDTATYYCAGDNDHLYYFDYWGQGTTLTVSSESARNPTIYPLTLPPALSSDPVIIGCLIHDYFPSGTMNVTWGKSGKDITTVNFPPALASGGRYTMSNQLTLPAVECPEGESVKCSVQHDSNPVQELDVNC
T2 sequence (P01729 20-129): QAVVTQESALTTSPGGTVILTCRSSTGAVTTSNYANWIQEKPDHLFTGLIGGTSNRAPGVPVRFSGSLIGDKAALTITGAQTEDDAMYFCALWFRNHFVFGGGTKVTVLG
T1 sequence (P01729+P01844 fused, one chain of several): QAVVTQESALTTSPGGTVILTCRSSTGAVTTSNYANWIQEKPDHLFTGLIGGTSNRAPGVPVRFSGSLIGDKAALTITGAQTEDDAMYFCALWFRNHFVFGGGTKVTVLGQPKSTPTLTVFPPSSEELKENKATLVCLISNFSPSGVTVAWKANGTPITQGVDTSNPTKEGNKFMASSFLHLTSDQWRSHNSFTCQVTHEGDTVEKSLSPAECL
T4 sequence (P01729 20-129, one chain of several): as the sequence (P01729 20-129) above

As for `CC(=O)CC(F)c1ccc([N+](=O)[O-])cc1` (racemic) [substrate 1, (R,S) 4-Fluoro-4-p-nitro phenylbutan-2-one], the kcat in data set [1] (pH 5.5) came out at 0.00138 s⁻¹; in data set [1] (pH 5.75), 0.00183 s⁻¹; in data set [1] (pH 6.0, 37° C.) it was 0.00313 s⁻¹; in data set [1] (pH 6.5), 0.005 s⁻¹; in [1] (pH 7.5) it was 0.00717 s⁻¹. For the same molecule, the Km in data set [1] (pH 6.0, 37° C.) worked out at 182 µM.
Take `CC(=O)Oc1ccc([N+](=O)[O-])cc1[N+](=O)[O-]` [DNP-acetate]: the “binding of substrate (fluorescence quenching)” value in [2] was “did not bind the substrate with appreciable affinity”.
In [3], `O=C(O)CNc1ccc([N+](=O)[O-])cc1[N+](=O)[O-]` [DNP-glycine, N-DNP-glycine] had a Ki of 8 µM. In addition, in data set [4], the Kd worked out at 5 µM.
For `O=C(CCCCCNc1ccc([N+](=O)[O-])cc1[N+](=O)[O-])Oc1ccc2ccc(=O)oc2c1` [compound 2], the “kcat (Table 2, Fv(Y34HL))” value in data set [5] came out at 0.015 min. For the same molecule, in [6], the “kcat (Table 2, Fv(315))” value is given as 0.005 min.
As for `O=C(CCNc1ccc([N+](=O)[O-])cc1[N+](=O)[O-])Oc1ccc2ccc(=O)oc2c1` [compound 3], the “kcat (Table 2, Fv(Y34HL))” value in data set [5] is listed as < 0.005 min.
For `C[C@]12C(=O)NC(=O)N(CC(=O)O)[C@H]1[C@H]1N(CC(=O)O)C(=O)NC(=O)[C@]12C` [dimer 1, carboxymethylthymine-(cis,syn)cyclobutane dimer], the “kcat /Km” value in [7] (300 nm irradiation, pH 7.5) amounted to 3000 M⁻¹ s⁻¹. The Km in data set [7] (300 nm irradiation, pH 7.5, 18°-20° C.) came out at 6.5 µM. Moreover, the kcat in data set [7] (300 nm, incident flux 1.26×10^-7 einsteins min^-1, pH 7.5, 18°-20° C.) was 0.02 s⁻¹.

B1: MOPC315 Fv variant Fv(Y34HL), Tyr 34L to His (Mus musculus; Y53H) (protein)
chain 1: QAVVTQESALTTSPGGTVILTCRSSTGAVTTSNHANWIQEKPDHLFTGLIGGTSNRAPGVPVRFSGSLIGDKAALTITGAQTEDDAMYFCALWFRNHFVFGGGTKVTVLGQPKST
chain 2: DVQLQESGPGLVKPSQSLSLTCSVTGYSITSGYFWNWIRQFPGNKLEWLGFIKYDGSNGYNPSLKNRVSITRDTSENQFFLKLNSVTTEDTATYYCAGDNDHLYYFDYWGQGTTLTVSS
notes: Antibody-derived VH was prepared by denaturing ion exchange chromatography of authentic MOPC315 Fv, obtained from pepsin digestion of purified IgA; lambda cII fusion with Factor Xa site (IleGluGlyArg) (N, cleaved yes); made in house; host or cells: VL: E. coli MZ1 (cII fusion, inclusion bodies); VH: pepsin-cleaved MOPC315 IgA from mouse ascites
Take B1: in data set [8], the Km worked out at 2.2 ± 0.2 µM, the kcat is 0.003 ± 0.0005 s⁻¹ and the kcat/Km is reported as 8.2×10^4 m^-1 min^-1. Moreover, the kcat in [9] is 8.3e-05 s⁻¹.
